Read-outs that look alike come from different tables or passages of the source.
Assays:
HEL cells = assay: Proliferation assay, HEL control cell line (CellTiter-Glo, 7 days); type: cell-based, human; details: Homo sapiens, HEL, 168 h
Procedure, shortened: (§1)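 Cells were seeded at line-specific low densities for linear growth, exposed to 3.16-fold serial compound dilutions at 0.1% DMSO, and incubated 7 days at 37 °C, 5% CO2. Viability was read by CellTiter-Glo 2.0 luminescence; IC50 came from one-site fits of % inhibition, normalized between DMSO-treated cells (100%) and a day-0 plate (0%).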

[1] = Human liver microsomes (HLMs) intrinsic clearance assay; type: in vitro ADME; details: human, microsomes
MV4;11 cells = assay: Proliferation assay, MV4;11 (CellTiter-Glo, 7 days); type: cell-based, human; details: Homo sapiens, MV4-11, 168 h, read-out: MV-4-11 IC50
Procedure, shortened: as §1

[2] = pH 7.4, 1 mg/mL HLM, NADPH, read-out: HLM CLint

CC(C)N(C(=O)c1cc(F)ccc1-n1cc(C(=O)C2CCN(C(=O)[C@H]3NC4CCC3CC4)CC2)c2ccncc21)C(C)C [Example 20, (S)-2-(3-(1-(2-Azabicyclo[2.2.2]octane-3-carbonyl)piperidine-4-carbonyl)-1H-pyrrolo[2,3-c]pyridin-1-yl)-5-fluoro-N,N-diisopropylbenzamide]
IC50 (HEL cells): > 10000 nM
microsomal CLint at 1 µM ([1]; pH 7.4, HLM CLint): 27 µL/min/mg
IC50 (MV4;11 cells): 25 nM

CC(C)N(C(=O)c1cc(F)ccc1-n1cc(C(=O)C2CCN(C(=O)[C@H]3NC[C@@H]4CCC[C@@H]43)CC2)c2ccncc21)C(C)C [Example 21, 5-Fluoro-N,N-diisopropyl-2-(3-(1-((1S,3αR,6αS)-octahydrocyclopenta[c]pyrrole-1-carbonyl)piperidine-4-carbonyl)-1H-pyrrolo[2,3-c]pyridin-1-yl)benzamide]
IC50 (HEL cells): > 10000 nM
microsomal CLint at 1 µM ([1]; pH 7.4, HLM CLint): 197 µL/min/mg
IC50 (MV4;11 cells): 27 nM

CC(C)N(C(=O)c1cc(F)ccc1-n1cc(C(=O)C2CCN(C(=O)[C@H]3N[C@H]4C[C@@H]3[C@@H](F)C4)CC2)c2ccncc21)C(C)C [Example 22, 5-Fluoro-2-(3-(1-((1S,3S,4S,5S)-5-fluoro-2-azabicyclo[2.2.1]heptane-3-carbonyl)piperidine-4-carbonyl)-1H-pyrrolo[2,3-c]pyridin-1-yl)-N,N-diisopropylbenzamide]
IC50 (HEL cells): > 10000 nM
microsomal CLint at 1 µM ([1]; pH 7.4, HLM CLint): 91 µL/min/mg
IC50 (MV4;11 cells): 17 nM

CC(C)N(C(=O)c1cc(F)ccc1-n1cc(C(=O)C2CCN(C(=O)[C@@H]3CCC4(CC4)N3)CC2)c2ccncc21)C(C)C [Example 24, (S)-2-(3-(1-(4-Azaspiro[2.4]heptane-5-carbonyl)piperidine-4-carbonyl)-1H-pyrrolo[2,3-c]pyridin-1-yl)-5-fluoro-N,N-diisopropylbenzamide]
IC50 (HEL cells): > 10000 nM
microsomal CLint at 1 µM [1, 2]: 145 µL/min/mg
IC50 (MV4;11 cells): 20 nM

CC(C)N(C(=O)c1cc(F)ccc1-n1cc(C(=O)C2CCN(C(=O)[C@@H]3CC4(CC4)CN3)CC2)c2ccncc21)C(C)C [Example 26, (S)-2-(3-(1-(5-Azaspiro[2.4]heptane-6-carbonyl)piperidine-4-carbonyl)-1H-pyrrolo[2,3-c]pyridin-1-yl)-5-fluoro-N,N-diisopropylbenzamide]
IC50 (HEL cells): > 10000 nM
microsomal CLint at 1 µM [1, 2]: 51 µL/min/mg
IC50 (MV4;11 cells): 50 nM

CC(C)N(C(=O)c1cc(F)ccc1-n1cc(C(=O)C2CCN(C(=O)[C@@H]3CCC(C)(C)N3)CC2)c2ccncc21)C(C)C [Example 27, (S)-2-(3-(1-(5,5-Dimethylpyrrolidine-2-carbonyl)piperidine-4-carbonyl)-1H-pyrrolo[2,3-c]pyridin-1-yl)-5-fluoro-N,N-diisopropylbenzamide]
IC50 (HEL cells): > 10000 nM
microsomal CLint at 1 µM ([1]; pH 7.4, HLM CLint): 46 µL/min/mg
IC50 (MV4;11 cells): 35 nM

CCN(C(=O)c1cc(F)ccc1-n1cc(C(=O)C2CCN(C(=O)[C@H]3NC[C@@H]4C[C@@H]43)CC2)c2ccncc21)C(C)C [Example 28, 2-(3-(1-((1S,2S,5R)-3-Azabicyclo[3.1.0]hexane-2-carbonyl)piperidine-4-carbonyl)-1H-pyrrolo[2,3-c]pyridin-1-yl)-N-ethyl-5-fluoro-N-isopropylbenzamide]
IC50 (HEL cells): > 10000 nM
microsomal CLint at 1 µM ([1]; pH 7.4, HLM CLint): 41 µL/min/mg
IC50 (MV4;11 cells): 34 nM

CCN(C(=O)c1cc(F)ccc1-n1cc(C(=O)C2CCN(C(=O)[C@H]3N[C@H]4C[C@@H]3[C@@H](F)C4)CC2)c2ccncc21)C(C)C [Example 30, N-Ethyl-5-fluoro-2-(3-(1-((1S,3S,4S,5S)-5-fluoro-2-azabicyclo[2.2.1]heptane-3-carbonyl)piperidine-4-carbonyl)-1H-pyrrolo[2,3-c]pyridin-1-yl)-N-isopropylbenzamide]
IC50 (HEL cells): > 10000 nM
microsomal CLint at 1 µM ([1]; pH 7.4, HLM CLint): 54 µL/min/mg
IC50 (MV4;11 cells): 33 nM

CCN(C(=O)c1cc(F)ccc1-n1cc(C(=O)C2CCN(C(=O)[C@H]3N[C@@H]4CC[C@H]3C4)CC2)c2ccncc21)C(C)C [Example 31, 2-(3-(1-((1R,3S,4S)-2-Azabicyclo[2.2.1]heptane-3-carbonyl)piperidine-4-carbonyl)-1H-pyrrolo[2,3-c]pyridin-1-yl)-N-ethyl-5-fluoro-N-isopropylbenzamide]
IC50 (HEL cells): > 10000 nM
microsomal CLint at 1 µM ([1]; pH 7.4, HLM CLint): 23 µL/min/mg
IC50 (MV4;11 cells): 32 nM

C[C@@H]1CCC[C@H](C)N1C(=O)c1cc(F)ccc1-n1cc(C(=O)C2CCN(C(=O)[C@H]3N[C@@H]4CC[C@H]3C4)CC2)c2ccncc21 [Example 33, (1-((1R,3S,4S)-2-Azabicyclo[2.2.1]heptane-3-carbonyl)piperidin-4-yl)(1-(2-((2R,6S)-2,6-dimethylpiperidine-1-carbonyl)-4-fluorophenyl)-1H-pyrrolo[2,3-c]pyridin-3-yl)methanone]
IC50 (HEL cells): > 10000 nM
microsomal CLint at 1 µM ([1]; pH 7.4, HLM CLint): 50 µL/min/mg
IC50 (MV4;11 cells): 103 nM

C[C@@H]1COC[C@@H](C)N1C(=O)c1cc(F)ccc1-n1cc(C(=O)C2CCN(C(=O)[C@H]3N[C@@H]4CC[C@H]3C4)CC2)c2ccncc21 [Example 34, (1-((1R,3S,4S)-2-Azabicyclo[2.2.1]heptane-3-carbonyl)piperidin-4-yl)(1-(2-((3R,5R)-3,5-dimethylmorpholine-4-carbonyl)-4-fluorophenyl)-1H-pyrrolo[2,3-c]pyridin-3-yl)methanone]
IC50 (HEL cells): > 10000 nM
microsomal CLint at 1 µM ([1]; pH 7.4, HLM CLint): 11 µL/min/mg
IC50 (MV4;11 cells): 39 nM

CC(C)n1nccc1-c1cc(F)ccc1-n1cc(C(=O)C2CCN(C(=O)[C@H]3N[C@@H]4CC[C@H]3C4)CC2)c2ccncc21 [Example 36, (1-((1R,3S,4S)-2-Azabicyclo[2.2.1]heptane-3-carbonyl)piperidin-4-yl)(1-(4-fluoro-2-(1-isopropyl-1H-pyrazol-5-yl)phenyl)-1H-pyrrolo[2,3-c]pyridin-3-yl)methanone]
IC50 (HEL cells): > 10000 nM
microsomal CLint at 1 µM ([1]; pH 7.4, HLM CLint): 58 µL/min/mg
IC50 (MV4;11 cells): 43 nM

CC(C)c1ncncc1-c1cc(F)ccc1-n1cc(C(=O)C2CCN(C(=O)[C@H]3N[C@@H]4CC[C@H]3C4)CC2)c2ccncc21 [Example 37, (1-((1R,3S,4S)-2-Azabicyclo[2.2.1]heptane-3-carbonyl)piperidin-4-yl)(1-(4-fluoro-2-(4-isopropylpyrimidin-5-yl)phenyl)-1H-pyrrolo[2,3-c]pyridin-3-yl)methanone]
IC50 (HEL cells): > 10000 nM
microsomal CLint at 1 µM ([1]; pH 7.4, HLM CLint): 52 µL/min/mg
IC50 (MV4;11 cells): 34 nM

CC(C)c1ncccc1-c1cc(F)ccc1-n1cc(C(=O)C2CCN(C(=O)[C@H]3N[C@@H]4CC[C@H]3C4)CC2)c2ccncc21 [Example 38, (1-((1R,3S,4S)-2-Azabicyclo[2.2.1]heptane-3-carbonyl)piperidin-4-yl)(1-(4-fluoro-2-(2-isopropylpyridin-3-yl)phenyl)-1H-pyrrolo[2,3-c]pyridin-3-yl)methanone]
IC50 (HEL cells): > 10000 nM
microsomal CLint at 1 µM ([1]; pH 7.4, HLM CLint): 131 µL/min/mg
IC50 (MV4;11 cells): 24 nM

O=C(c1cn(-c2ccc(F)cc2-c2cncnc2C2CC2)c2cnccc12)C1CCN(C(=O)[C@H]2N[C@@H]3CC[C@H]2C3)CC1 [Example 40, (1-((1R,3S,4S)-2-Azabicyclo[2.2.1]heptane-3-carbonyl)piperidin-4-yl)(1-(2-(4-cyclopropylpyrimidin-5-yl)-4-fluorophenyl)-1H-pyrrolo[2,3-c]pyridin-3-yl)methanone]
IC50 (HEL cells): > 10000 nM
microsomal CLint at 1 µM ([1]; pH 7.4, HLM CLint): 18 µL/min/mg
IC50 (MV4;11 cells): 37 nM

CC(C)c1ncsc1-c1cc(F)ccc1-n1cc(C(=O)C2CCN(C(=O)[C@H]3N[C@@H]4CC[C@H]3C4)CC2)c2ccncc21.O=CO [Example 42, (1-((1R,3S,4S)-2-Azabicyclo[2.2.1]heptane-3-carbonyl)piperidin-4-yl)(1-(4-fluoro-2-(4-isopropylthiazol-5-yl)phenyl)-1H-pyrrolo[2,3-c]pyridin-3-yl)methanone 1·formic acid]
IC50 (HEL cells): > 10000 nM
microsomal CLint at 1 µM ([1]; pH 7.4, HLM CLint): 219 µL/min/mg
IC50 (MV4;11 cells): 43 nM

CC(C)N(C(=O)c1cc(F)ccc1-n1cc(C(=O)C2CCN(C(=O)[C@H]3N[C@@H]4CC[C@H]3C4)CC2)c2c(F)cncc21)C(C)C.O=CO [Example 44, 2-(3-(1-((1R,3S,4S)-2-Azabicyclo[2.2.1]heptane-3-carbonyl)piperidine-4-carbonyl)-4-fluoro-1H-pyrrolo[2,3-c]pyridin-1-yl)-5-fluoro-N,N-diisopropylbenzamide 1·formic acid]
IC50 (HEL cells): > 10000 nM
microsomal CLint at 1 µM ([1]; pH 7.4, HLM CLint): 17 µL/min/mg
IC50 (MV4;11 cells): 65 nM

CCN(C(=O)c1cc(F)ccc1-n1c(C)c(C(=O)C2CCN(C(=O)[C@H]3N[C@@H]4CC[C@H]3C4)CC2)c2ccncc21)C(C)C [Example 46, 2-(3-(1-((1R,3S,4S)-2-Azabicyclo[2.2.1]heptane-3-carbonyl)piperidine-4-carbonyl)-2-methyl-1H-pyrrolo[2,3-c]pyridin-1-yl)-N-ethyl-5-fluoro-N-isopropylbenzamide]
IC50 (HEL cells): > 10000 nM
microsomal CLint at 1 µM ([1]; pH 7.4, HLM CLint): 50 µL/min/mg
IC50 (MV4;11 cells): 37 nM

CCN(C(=O)c1cc(F)ccc1-n1c(C)c(C(=O)C2CCN(C(=O)[C@H]3NC[C@@H]4C[C@@H]43)CC2)c2ccncc21)C(C)C [Example 47, 2-(3-(1-((1S,2S,5R)-3-Azabicyclo[3.1.0]hexane-2-carbonyl)piperidine-4-carbonyl)-2-methyl-1H-pyrrolo[2,3-c]pyridin-1-yl)-N-ethyl-5-fluoro-N-isopropylbenzamide]
IC50 (HEL cells): > 10000 nM
microsomal CLint at 1 µM ([1]; pH 7.4, HLM CLint): 54 µL/min/mg
IC50 (MV4;11 cells): 33 nM

Cc1c(C(=O)C2CCN(C(=O)[C@H]3NC[C@@H]4C[C@@H]43)CC2)c2ccncc2n1-c1ccc(F)cc1-c1cnccc1C(C)C [Example 54, (1-((1S,2S,5R)-3-Azabicyclo[3.1.0]hexane-2-carbonyl)piperidin-4-yl)(1-(4-fluoro-2-(4-isopropylpyridin-3-yl)phenyl)-2-methyl-1H-pyrrolo[2,3-c]pyridin-3-yl)methanone]
IC50 (HEL cells): > 10000 nM
microsomal CLint at 1 µM ([1]; pH 7.4, HLM CLint): 73 µL/min/mg
IC50 (MV4;11 cells): 40 nM

Source: patent publication US20240335431A1, “1-H-PYRROLO[2,3-c]PYRIDINE COMPOUNDS” (Acerta Pharma B.V., priority 2023, published 2024)
